Measurements taken from patent US11207291B2, “Antimicrobial compositions comprising cannabinoids and methods of using the same” (Graphium Biosciences, Inc., priority 2017, dated 2021).
Values after ≈ are worked out from the molar mass of the structure shown. Like-named read-outs stand apart in the source and are kept apart here.

What was measured:
Lactobacillus jensenii [1] = assay: Broth microdilution MIC, anaerobic bacteria (Example 1); assay type: cell-based; conditions: Lactobacillus jensenii; Example 1; isolate MMX 4149; read-out: MIC
Bifidobacterium bifidum [2] = assay: Broth microdilution MIC, anaerobic bacteria (Example 4); assay type: cell-based; conditions: isolate MMX 3965
Bifidobacterium longum [3] = assay: Broth microdilution MIC, anaerobic bacteria (Example 1); assay type: cell-based; conditions: Bifidobacterium longum; Example 1; isolate MMX 3968; read-out: MIC
B. longum MMX 3968 = assay: MIC/MBC testing (Example 5); assay type: cell-based
C. difficile = assay: MIC/MBC testing (Example 5); assay type: cell-based; conditions: for MBC:MIC: ratios of 1-4 are indicative of bactericidal activity
Bacteroides fragilis [4] = assay: Broth microdilution MIC, anaerobic bacteria (Example 1); assay type: cell-based; conditions: Bacteroides fragilis, ATCC5285
Clostridium difficile [5] = assay: as above; assay type: cell-based; conditions: Clostridioides difficile
Lactobacillus crispatus = assay: as above; assay type: cell-based; conditions: Lactobacillus crispatus; Example 1; isolate MMX 4147; read-out: MIC
B. fragilis ATCC 25285 [6] = conditions: Example 5 control agents table; cited from earlier work
Lactobacillus jensenii [7] = assay: Broth microdilution MIC, anaerobic bacteria (Example 4); assay type: cell-based; conditions: isolate MMX 4149
B. bifidum MMX 3965 = assay: MIC/MBC testing (Example 5); assay type: cell-based
B. fragilis ATCC 25285 [8] = assay: MIC/MBC testing (Example 5); assay type: cell-based; conditions: Bacteroides fragilis, ATCC25285
Bifidobacterium longum [9] = assay: Broth microdilution MIC, anaerobic bacteria (Example 4); assay type: cell-based; conditions: isolate MMX 3968
Clostridium difficile [10] = assay: as above; assay type: cell-based; conditions: Clostridioides difficile
Bifidobacterium bifidum [11] = assay: Broth microdilution MIC, anaerobic bacteria (Example 1); assay type: cell-based; conditions: Bifidobacterium bifidum; Example 1; isolate MMX 3965; read-out: MIC
[12] = Compound precipitation in uninoculated solubility controls (Example 4); assay type: physicochemical; design: key to precipitation observed (type): NA: not applicable (no precipitation observed); TRP: trace precipitate; DCP: distinct precipitate
Protocol: Un-inoculated solubility control plates for each test media and drug were incubated in parallel with test plates and observed for evidence of drug precipitation. MICs were read where visible growth of the organism was inhibited.

gram-negative aerobes = assay: Broth microdilution MIC, summary (Example 4); assay type: cell-based; conditions: tested alone
E. faecalis MMX 848 = assay: MIC/MBC testing (Example 5); assay type: cell-based
Escherichia coli = assay: Broth microdilution MIC, aerobic bacteria (Example 4); assay type: cell-based; conditions: ATCC25922
S. aureus MMX 757 = assay: MIC/MBC testing (Example 5); assay type: cell-based
S. aureus ATCC 29213 = assay: MIC/MBC testing (Example 5); assay type: cell-based
S. pyogenes MMX 404 = assay: MIC/MBC testing (Example 5); assay type: cell-based
Bacteroides fragilis [13] = assay: Broth microdilution MIC, anaerobic bacteria (Example 4); assay type: cell-based; conditions: ATCC25285, isolate MMX 123 (ATCC 25285)
S. pneumoniae ATCC 49619 = assay: MIC/MBC testing (Example 5); assay type: cell-based; conditions: Streptococcus pneumoniae, ATCC49619
[14] = system: Enterococcus faecalis (VRE); assay: microbe, parasite or virus in culture; assay type: cell-based
Streptococcus pneumoniae = assay: Broth microdilution MIC, aerobic bacteria (Example 4); assay type: cell-based; conditions: ATCC49619
E. faecalis ATCC 29212 = assay: MIC/MBC testing (Example 5); assay type: cell-based
[15] = system: Staphylococcus aureus (MSSA); assay: Broth microdilution MIC, aerobic bacteria (Example 4); assay type: cell-based; conditions: ATCC 29213 / MSSA
strains tested = assay: MIC/MBC testing, summary (Example 5); assay type: cell-based
[16] = system: Enterococcus faecalis (VSE); assay: Broth microdilution MIC, aerobic bacteria (Example 4); assay type: cell-based; conditions: ATCC29212
Acinetobacter baumannii = assay: as above; assay type: cell-based
Pseudomonas aeruginosa = assay: as above; assay type: cell-based
Streptococcus pyogenes = assay: as above; assay type: cell-based
[17] = system: Klebsiella pneumoniae (KPC-2); assay: microbe, parasite or virus in culture; assay type: cell-based
[18] = system: evaluated yeast and fungal isolates; assay: Broth microdilution MIC, summary (Example 4); assay type: cell-based
Aspergillus fumigatus = assay: Broth microdilution MIC, fungi (Example 4); assay type: cell-based; conditions: Aspergillus fumigatus, Example 4, isolate MMX 5280 (MYA-3626)
[19] = system: Staphylococcus aureus (MRSA); assay: microbe, parasite or virus in culture; assay type: cell-based
Candida parapsilosis = assay: Broth microdilution MIC, fungi (Example 4); assay type: cell-based; conditions: for concentration at which 50% inhibition observed relative to the growth control: value in parenthesis; for MIC: Lodderomyces parapsilosis
E. coli ATCC 25922 = assay: MIC/MBC testing (Example 5); assay type: cell-based; conditions: Escherichia coli, ATCC25922
[20] = Clostridioides difficile, ATCC700057, Example 5, ATCC 700057
[21] = ATCC700057, Example 4, isolate MMX 4381 (ATCC 700057)
[22] = ratios of 1-4 are indicative of bactericidal activity
[23] = Bifidobacterium longum, MMX3968
[24] = Clostridioides difficile, Example 5, MMX 8330
[25] = Clostridioides difficile, Example 5, MMX 8333
[26] = Staphylococcus aureus, ATCC29213
[27] = Enterococcus faecalis, ATCC29212
[28] = Bifidobacterium bifidum, MMX3965

Cc1ncc([N+](=O)[O-])n1CCO [Metronidazole]
MIC (Lactobacillus jensenii [1]): > 32 µg/mL
MIC (Bifidobacterium bifidum [2]): 2 µg/mL (≈ 11.7 µM)
MIC (Bifidobacterium longum [3]): 8 µg/mL (≈ 46.7 µM)
MIC (B. longum MMX 3968; Bifidobacterium longum, MMX3968, Example 5, read-out: MIC): 8 µg/mL (≈ 46.7 µM)
MIC (C. difficile; [20]): 0.12 µg/mL (≈ 0.701 µM)
MIC (C. difficile; Clostridioides difficile, Example 5, MMX 8330, read-out: MIC): 0.5 µg/mL (≈ 2.92 µM)
MIC (C. difficile; Example 5, MMX 8333): 0.5 µg/mL (≈ 2.92 µM)
MIC (Bacteroides fragilis [4]): 0.5 µg/mL (≈ 2.92 µM)
MIC (Clostridium difficile [5]; ATCC00057, Example 1, isolate MMX 4381 (ATCC 00057)): 0.12 µg/mL (≈ 0.701 µM)
MIC (Clostridium difficile [5]; Example 1, isolate MMX 8330, read-out: MIC): 0.12 µg/mL (≈ 0.701 µM)
MIC (Lactobacillus crispatus): > 32 µg/mL
CLSI QC range (MIC) (B. fragilis ATCC 25285 [6]): (0.25-2)^1 μg/mL
MIC (Lactobacillus jensenii [7]): > 32 µg/mL
MIC (B. bifidum MMX 3965; Bifidobacterium bifidum, MMX3965, Example 5, read-out: MIC): 1 µg/mL (≈ 5.84 µM)
MIC (B. fragilis ATCC 25285 [8]; Example 5, read-out: MIC): 0.5 µg/mL (≈ 2.92 µM)
MIC (Bifidobacterium longum [9]): 8 µg/mL (≈ 46.7 µM)
MIC (Clostridium difficile [10]; [21]): 0.25 µg/mL (≈ 1.46 µM)
MIC (Clostridium difficile [10]; Example 4, isolate MMX 8330): 0.25 µg/mL (≈ 1.46 µM)
MIC (Clostridium difficile [10]; Example 4, isolate MMX 8333): 2 µg/mL (≈ 11.7 µM)
MIC (Bifidobacterium bifidum [11]): 1 µg/mL (≈ 5.84 µM)

CCCCCc1cc(O)c2c(c1)OC(C)(C)[C@@H]1CCC(C)=C[C@@H]21 [THC, tetrahydrocannabinol]
MIC (Bifidobacterium bifidum [2]): 16 µg/mL (≈ 50.9 µM)
concentration at which precipitation was observed ([12]; Brucella Broth): 128 µg/mL
precipitation observed (type) ([12]; Brucella Broth): DCP
precipitation observed (type) ([12]; MHB II): DCP
precipitation observed (type) ([12]; MHB II with Blood): none
precipitation observed (type) ([12]; RPMI): TRP
activity against Gram-negative aerobes (gram-negative aerobes): inactive
MBC (E. faecalis MMX 848; Enterococcus faecalis, MMX848): 4 µg/mL (≈ 12.7 µM)
MIC (E. faecalis MMX 848; Enterococcus faecalis, MMX848): 2 µg/mL (≈ 6.36 µM)
MBC:MIC (E. faecalis MMX 848; [22]): 2
MBC (B. longum MMX 3968; [23]): > 256 µg/mL
MIC (B. longum MMX 3968; [23]): 32 µg/mL (≈ 102 µM)
MBC:MIC (B. longum MMX 3968; [22]): >8
MBC:MIC (C. difficile; ATCC 700057): 2
MBC (C. difficile; [20]): 128 µg/mL (≈ 407 µM)
MIC (C. difficile; [20]): 64 µg/mL (≈ 204 µM)
MBC (C. difficile; [24]): 64 µg/mL (≈ 204 µM)
MIC (C. difficile; [24]): 64 µg/mL (≈ 204 µM)
MBC (C. difficile; [25]): 128 µg/mL (≈ 407 µM)
MIC (C. difficile; [25]): 64 µg/mL (≈ 204 µM)
MBC:MIC (C. difficile; MMX 8330): 1
MBC:MIC (C. difficile; MMX 8333): 2
MIC (Escherichia coli): > 128 µg/mL
MBC (S. aureus MMX 757; Staphylococcus aureus, MMX757): 32 µg/mL (≈ 102 µM)
MIC (S. aureus MMX 757; Staphylococcus aureus, MMX757): 4 µg/mL (≈ 12.7 µM)
MBC:MIC (S. aureus MMX 757; [22]): 8
MBC (S. aureus ATCC 29213; [26]): 4 µg/mL (≈ 12.7 µM)
MIC (S. aureus ATCC 29213; [26]): 4 µg/mL (≈ 12.7 µM)
MBC:MIC (S. aureus ATCC 29213; [22]): 1
MBC (S. pyogenes MMX 404; Streptococcus pyogenes, MMX404): 32 µg/mL (≈ 102 µM)
MIC (S. pyogenes MMX 404; Streptococcus pyogenes, MMX404): 32 µg/mL (≈ 102 µM)
MBC:MIC (S. pyogenes MMX 404; [22]): 1
MIC (Bacteroides fragilis [13]): > 128 µg/mL
MIC (S. pneumoniae ATCC 49619): 1 µg/mL (≈ 3.18 µM)
MIC [14]: 2 µg/mL (≈ 6.36 µM)
MIC (Lactobacillus jensenii [7]): 128 µg/mL (≈ 407 µM)
MIC (Streptococcus pneumoniae): 1 µg/mL (≈ 3.18 µM)
MBC (E. faecalis ATCC 29212; [27]): 8 µg/mL (≈ 25.4 µM)
MIC (E. faecalis ATCC 29212; [27]): 2 µg/mL (≈ 6.36 µM)
MBC:MIC (E. faecalis ATCC 29212; [22]): 4
MIC [15]: 2 µg/mL (≈ 6.36 µM)
biocidal activity against the strains tested (strains tested): overall biocidal
MIC [16]: 2 µg/mL (≈ 6.36 µM)
MIC (Acinetobacter baumannii): > 128 µg/mL
MBC (B. bifidum MMX 3965; [28]): 128 µg/mL (≈ 407 µM)
MIC (B. bifidum MMX 3965; [28]): 32 µg/mL (≈ 102 µM)
MBC:MIC (B. bifidum MMX 3965; [22]): 4
MIC (Pseudomonas aeruginosa): > 128 µg/mL
MIC (B. fragilis ATCC 25285 [8]): > 256 µg/mL
MIC (Bifidobacterium longum [9]): 32 µg/mL (≈ 102 µM)
MIC (Streptococcus pyogenes): 16 µg/mL (≈ 50.9 µM)
MIC [17]: > 128 µg/mL
MIC (Clostridium difficile [10]; [21]): 32 µg/mL (≈ 102 µM)
MIC (Clostridium difficile [10]; Example 4, isolate MMX 8330): 32 µg/mL (≈ 102 µM)
MIC (Clostridium difficile [10]; Example 4, isolate MMX 8333): 32 µg/mL (≈ 102 µM)
activity against yeast and fungal isolates [18]: Neither THC nor CBD were active
MIC (Aspergillus fumigatus; 24 hr, read-out: MIC at 24 hr): > 128 µg/mL
MIC (Aspergillus fumigatus; 48 hr, read-out: MIC at 48 hr): > 128 µg/mL
MIC [19]: 2 µg/mL (≈ 6.36 µM)
concentration at which 50% inhibition observed relative to the growth control (Candida parapsilosis; Example 4, 24 hr): 4 µg/mL
concentration at which 50% inhibition observed relative to the growth control (Candida parapsilosis; Example 4, 48 hr): 4 µg/mL
MIC (Candida parapsilosis; ATCC22019, 24 h, read-out: MIC at 24 hr): > 128 µg/mL
MIC (Candida parapsilosis; ATCC22019, Example 4, 48 hr, isolate MMX 2323 (ATCC 22019), read-out: MIC at 48 hr): > 128 µg/mL
MIC (E. coli ATCC 25922): > 256 µg/mL
